Source: PMC10535379 (Viruses, 2023)
Entries after “also recorded” stand apart in the source; their conditions may differ. Structures can show the parent of a compound that is named as a salt. Where two headings read alike, the source gives them in different places.

Assays:
FMDV serotype A (NP05) [1] = assay: microbe, parasite or virus in culture; conditions: Foot-and-mouth disease virus, BHK-21, read-out: EC50 Post Entry
FMDV 3Cpro = FMDV 3Cpro (Foot-and-mouth disease virus, UniProt P03306); assay: cell-based
FMDV serotype A (NP05) [2] = assay: in vitro; conditions: hamster
BHK-21 cells = conditions: hamster
FMDV serotype A (NP05) [3] = assay: microbe, parasite or virus in culture; type: cell-based, foot-and-mouth disease virus; conditions: for EC50: Foot-and-mouth disease virus, BHK-21, read-out: EC50 Pre-Treatment
in vitro = conditions: hamster
FMDV serotype A (NP05) [4] = type: cell-based, foot-and-mouth disease virus; conditions: for Virucidal effect: 50 µM, 0 min
FMDV serotype A (NP05) [5] = assay: microbe, parasite or virus in culture; type: cell-based, foot-and-mouth disease virus; conditions: for EC50: Foot-and-mouth disease virus, BHK-21, read-out: EC50 Co-Treatment
FMDV serotype A (NP05) [6] = type: cell-based, foot-and-mouth disease virus
HEK-293T cells = conditions: human
FMDV serotype A (NP05) [7] = type: cell-based, foot-and-mouth disease virus; remark: listed apart in the source
FMDV = conditions: cited from earlier work
[8] = test system: Schizosaccharomyces pombe; conditions: cited from earlier work
Saccharomyces cerevisiae = conditions: cited from earlier work
FMDV serotype A (NP05) [9] = test system: FMDV serotype A (NP05)
carboxypeptidase B = conditions: cited from earlier work
[10] = test system: human respiratory syncytial virus (RSV); conditions: read-out: IC50 against RSV; cited from earlier work
HEP-2 cells = conditions: human; cited from earlier work
[11] = HEK-293T, read-out: Inhibition of FMDV 3Cpro

Sequence of FMDV 3Cpro (P03306 1650-1862 limits assumed): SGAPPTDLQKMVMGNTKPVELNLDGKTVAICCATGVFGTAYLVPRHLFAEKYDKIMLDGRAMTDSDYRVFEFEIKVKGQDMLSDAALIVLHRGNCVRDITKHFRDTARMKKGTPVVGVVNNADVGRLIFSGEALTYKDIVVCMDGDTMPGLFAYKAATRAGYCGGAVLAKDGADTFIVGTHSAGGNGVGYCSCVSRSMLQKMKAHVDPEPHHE

N#Cc1cc(-c2ccccc2)[nH]c1-c1nccc2ccccc12 [NSC116640, 2-isoquinolin-1-yl-5-phenyl-1H-pyrrole-3-carbonitrile]
EC50 (FMDV serotype A (NP05) [1]): 2.88 ± 0.17 µM
Concentration required for 80% inhibition of FMDV 3Cpro (FMDV 3Cpro): more than 40 µM
IC50 (FMDV 3Cpro): 10.8 µM
selectivity ratio (FMDV serotype A (NP05) [2]): 73.2
MNTD90 (maximum non-toxic dose) (BHK-21 cells): 50 µM
EC50 (FMDV serotype A (NP05) [3]): 7.27 ± 0.86 µM
CC50 (in vitro): 210.7 ± 0.17 µM
Reduction of viral titers (FMDV serotype A (NP05) [4]): 1.00–2.27 log TCID50/mL
EC50 (FMDV serotype A (NP05) [5]): 5.74 ± 0.23 µM
Viral load (viral copy number) reduction (FMDV serotype A (NP05) [6]): reduce the viral loads in a dose-dependent manner
MNTD90 (maximum non-toxic dose) (HEK-293T cells): 50 µM
Number of viruses (FMDV serotype A (NP05) [7]): slightly increased
Virus yield (% of viral copy numbers) (FMDV serotype A (NP05) [7]): 0–10%
Potent activity in StopGo luciferase anti-FMDV screen (FMDV): 28.18 µM

N#CC(c1ccccc1)N(CCCCCCN(C(=O)c1ccccc1)C(C#N)c1ccccc1)C(=O)c1ccccc1 (stereo not shown) [NSC681744, N-[6-[benzoyl-[cyano(phenyl)methyl]amino]hexyl]-N-[cyano(phenyl)methyl]benzamide]
Inhibition of Schizosaccharomyces pombe [8]: none of them could inhibit
EC50 Pre-Treatment (FMDV serotype A (NP05) [3]): I
CC50 (in vitro): 124 ± 0.5 µM
Virucidal effect (FMDV serotype A (NP05) [4]): good inhibition at 0 min
EC50 (FMDV serotype A (NP05) [5]): 4.83 ± 0.08 µM
Inhibition of Saccharomyces cerevisiae (Saccharomyces cerevisiae): none of them could inhibit

COc1cc(/C=N/Nc2nc3c([nH]2)c(=O)n(C)c(=O)n3C)ccc1O [NSC64672, 8-[(2E)-2-[(4-hydroxy-3-methoxyphenyl)methylidene]hydrazinyl]-1,3-dimethyl-7H-purine-2,6-dione]
EC50 Post Entry (FMDV serotype A (NP05) [9]): I
EC50 Pre-Treatment (FMDV serotype A (NP05) [3]): I
CC50 (in vitro): 130 ± 2.3 µM
EC50 Co-Treatment (FMDV serotype A (NP05) [5]): I

CCN(CC)CCCC(C)NC(=O)c1ccc2c(c1)C(=O)c1ccccc1C2=O (stereo not shown) [NSC331757, N-[5-(diethylamino)pentan-2-yl]-9,10-dioxoanthracene-2-carboxamide;hydrochloride]
EC50 Post Entry (FMDV serotype A (NP05) [9]): I
EC50 Pre-Treatment (FMDV serotype A (NP05) [3]): I
CC50 (in vitro): 62.8 ± 0.87 µM
EC50 Co-Treatment (FMDV serotype A (NP05) [5]): I

Oc1ccccc1-c1nc2c3ccccc3c3ccccc3c2[nH]1 [NSC332670, 6-(1,3-Dihydrophenanthro[9,10-d]imidazol-2-ylidene)cyclohexa-2,4-dien-1-one]
EC50 (FMDV serotype A (NP05) [1]): 5.92 ± 0.2 µM
IC50 (carboxypeptidase B): 1550 µM
IC50 (FMDV 3Cpro): 4.21 µM
inhibition at 10 µM (FMDV 3Cpro; [11]): ~90%
inhibition at 40 µM (FMDV 3Cpro; [11]): 100%
selectivity ratio (FMDV serotype A (NP05) [2]): 11.1
MNTD90 (maximum non-toxic dose) (BHK-21 cells): 50 µM
EC50 (FMDV serotype A (NP05) [3]): 7.18 ± 0.98 µM
CC50 (in vitro): 65.82 ± 0.06 µM
Reduction of viral titers (FMDV serotype A (NP05) [4]): 1.17–2.27 log TCID50/mL
EC50 (FMDV serotype A (NP05) [5]): 2.04 ± 0.02 µM
Viral load (viral copy number) reduction (FMDV serotype A (NP05) [6]): reduce the viral loads in a dose-dependent manner
MNTD90 (maximum non-toxic dose) (HEK-293T cells): 50 µM
IC50 [10]: 11 µM
Inhibition effect (FMDV serotype A (NP05) [7]): reduced; also recorded: completely lost
Viral inhibition (FMDV serotype A (NP05) [7]): great inhibition
CC50 (HEP-2 cells): 15.3 µM

Cc1ccc([N+](=O)[O-])cc1NC(=O)c1cccc([N+](=O)[O-])c1O [NSC79451, 2-Hydroxy-N-(2-methyl-5-nitrophenyl)-3-nitrobenzamide]
Inhibition of Schizosaccharomyces pombe [8]: none of them could inhibit
EC50 Pre-Treatment (FMDV serotype A (NP05) [3]): I
CC50 (in vitro): 32.79 ± 0.3 µM
Virucidal effect (FMDV serotype A (NP05) [4]): good inhibition at 0 min
EC50 (FMDV serotype A (NP05) [5]): 1.56 ± 0.03 µM
Inhibition of Saccharomyces cerevisiae (Saccharomyces cerevisiae): none of them could inhibit

O=[N+]([O-])c1ccccc1/C=C/C=N/N=C/c1ccccc1O [NSC119805, 2-[(E)-[(E)-[(E)-3-(2-nitrophenyl)prop-2-enylidene]hydrazinylidene]methyl]phenol]
EC50 Post Entry (FMDV serotype A (NP05) [9]): I
EC50 Pre-Treatment (FMDV serotype A (NP05) [3]): I
CC50 (in vitro): 82.45 ± 0.4 µM
EC50 Co-Treatment (FMDV serotype A (NP05) [5]): I
